Laboratory results taken from patent publication US6054437A, “Method for inducing death of neoplastic cells using piperazine derivatives” (Hitachi Chemical Research Center, Inc., priority 1997, dated 2000).
Where a name gives a salt, the structure may show the parent alone.

How the values were obtained:
kidney tumor cells = assay: Human tumor biopsy assay, kidney tumor; assay type: cell-based; settings: 20 μM NCO-700 and 0.5 mg/ml adriamycin, 1 hour
Experimental: 4. Human Tumor Biopsy Assays
where the effect of NCO-700 to enhance killing, by either vinblastine or adriamycin, of cancer cells cultured directly from patient's tumors (Von Hoff et al., Cancer Res. 43:1926-1931, 1983).
For the tumor biopsy assay, primary cell cultures were propagated directly from tumor specimens removed from patients. The cells were grown in suspension culture, treated with adriamycin or vinblastine plus NCO-700, and plated onto soft agar and incubated for two weeks before cell survival was determined.
In a final series of experiments, the effect of NCO-700 on survival of cells cultured directly from biopsied patient tumors was performed. This technique, referred to as a human tumor cloning system, was developed by Von Hoff and associates (Von Hoff et al., Cancer Res. 43:1926-1931, 1983) and was used clinically to predict the course of chemotherapy for these patients. In this method, tumor biopsies were separated into cell suspensions and treated for 1 hour with either 0.4 mg/ml vinblastine (VLB) or 0.5 mg/ml adriamycin (ADR) plus or minus 20 μM NCO-700. The cell suspensions were washed after one hour of incubation and plated with soft agar. After 14 days of incubation at 37°, the percent of colonies surviving was scored. […] In particular, the survival of tumor cells decreased to approximately 1/2 to 1/3 after exposure to NCO-700 and adriamycin. […]

KB-V-1 (resistant cells) = assay: Drug accumulation assay ([3H]-vinblastine), resistant cells; assay type: cell-based, human; settings: KB-V-1, 20 μM NCO-700 + vinblastine
Experimental: 1. Drug Accumulation Assays
where the effect of NCO-700 on the uptake of radioactive (^3 H)-vinblastine, an anticancer drug, is measured in cultured cancer cells, that are both drug-resistant and drug-sensitive (Reference 3).
(§1) In the first two in vitro assays, the drug accumulation assay and the cell survival assay, a human pharyngeal carcinoma cell line (KB-V-1) which is highly resistant to anticancer drugs was used. This cell line was developed by Drs. Ira Pastan and Michael Gottesman of the National Cancer Institute, by step-wise selection in colchicine of drug-resistant cells. The control cancer cell line (KB-3), from which the resistant cell lines were derived, is sensitive to anticancer drugs.
Measurement of [^3 H]-vinblastine accumulation was performed by the methods developed in the laboratory of Drs. […] In this method, KB-V-1 and KB-3 cells were plated in 10% fetal bovine serum at a density of 3×10^5 cells per well in 24-well Costar plates. The next day, the growth medium was replaced with Dulbecco's modified Eagle's medium with or without (control cells) 20 μM NCO-700. After ten minutes, the medium was removed and replaced with assay medium (0.5 ml) containing 0.1 μCi, (13 pmol) [^3 H]-vinblastine in the presence or absence of 20 μM NCO-700. After an additional 30 min, the medium was removed, the plates were washed three times in ice-cold phosphate-buffered saline, the cells were detached with trypsin, and radioactivity determined by scintillation counting.

KB-CH 8-5 = assay: In vivo model of tumorigenicity, nude mice carrying resistant human tumor
Experimental: 3. In Vivo Model of Tumorigenicity
where the effect of NCO-700 in the ability of adriamycin to reduce tumor mass in drug-resistant neoplasms was measured.
For the in vivo model of tumorigenicity, cell lines developed by Pastan and Gottesman which can grow as solid tumors in nude mice were utilized. This cell line was designated KB-CH 8-5, and was a nonreverting resistant cell line. All of these cancer cell lines were generously provided by Dr. Gottesman.
In the next series of experiments, an in vivo model of tumorigenicity was utilized to examine the effect of NCO-700 on tumor mass. These experiments were performed with the cell line KB-CH-8/5, which is a cell line developed by Drs. Gottesman and Pastan, specifically for use in animals as the cells from solid tumors in vivo. Nude male mice, 5-6 weeks old and weighing between 25-30 g, were injected subcutaneously with 2-5×10^6 KB-CH-8/5 cells and treated for 14 days with 0.6 mg/kg adriamycin and with or without NCO-700 in doses ranging from 0-80 mg/kg NCO-700 per day. The data shown in FIG. 37 were obtained by weighing the well-encapsulated, excised tumor and recording the body weight of the mice.

human colon cancer cells = assay: Subrenal capsule (SRC) tumor implant assay, colon cancer; assay type: in vivo, human tumor in BDF/1 mice
Experimental: FIG. 19 is a graph showing the relationship between the change in size of tumor and the dosage of NCO-700 in a sub-renal capsule assay of human colon cancer in BDF/1 mice.
A tumor implant model, where human tumors were implanted into the renal capsule of mice was performed. The tumors successfully escaped the immune system of the mouse and grew over a six-day period. The advantage of this assay is that the effect of chemotherapeutic agents can be tested in vivo. This model was developed at the University of California, Irvine by Stratton et al. (Gynecologic Oncology 17:185-188, 1984). Human tumors were implanted on day one and were exposed to drug on days two-six. The size of the implant was determined at time zero and at the end of five days of drug treatment, and the difference in size of the implanted tumor at day six, when compared to control animals not exposed to drug, is referred to herein as the delta mean.
The effect of NCO-700 on a colon cancer line was tested in the SRC assay. Three groups of animals (n=18 total) were tested with two concentrations of NCO-700 including. 50 mg/kg and 100 mg/kg. […] These studies confirm the high potential of NCO-700 and related compounds as new anti-neoplastic agents.

KB-3 (sensitive) = assay: Cell survival assay with vinblastine, sensitive cells; assay type: cell-based, human
Experimental: where the effect of NCO-700 to enhance cancer cell killing by vinblastine was measured.
as §1, with “drugs. The resistant KB-V-1 cell line is approximately 275 times more resistant to vinblastine than the sensitive KB-3 line and has a greatly amplified mdr gene which generates the observed resistance.” for “drugs.”
The cell survival experiments shown above were performed by plating KB-3 (sensitive) and KB-V-1 (resistant) cells in 32 mm well plastic dishes at a cell density of 300-500 cells per well. Vinblastine and NCO-700 were added 16 hours after the initial cell plating. After 10 days of incubation at 37°, cell colonies were stained and counted.

CCOC(=O)[C@@H]1O[C@H]1C(=O)N[C@@H](CC(C)C)C(=O)N1CCN(Cc2ccc(OC)c(OC)c2OC)CC1 [NCO-700, Bis[ethyl (2R,3R)-3-[(S)-3-methyl-1-[4-(2,3,4-trimethoxyphenylmethyl)piperazin-1-ylcarbonyl]butylcarbamoyl]oxirane-2-carboxylate] Sulfate]
survival of tumor cells decreased to (fraction) (kidney tumor cells): approximately 1/4 | vinblastine accumulation (KB-V-1 (resistant cells)): 1.56 ± 0.03 pmole vinblastine/mg protein | effect on tumor, alone (KB-CH 8-5; NCO-700 on its own): not significantly effective on its own | decline of tumor mass (KB-CH 8-5; NCO-700 with adriamycin): 60% | loss of body weight (KB-CH 8-5; nude mice carrying resistant human tumor): without any corresponding loss of body weight | potentiation of the effect of adriamycin on tumor (KB-CH 8-5; with 0.6 mg/kg adriamycin, 14 days, NCO-700 0-80 mg/kg per day): significantly potentiated the effect of adriamycin, especially at an amount of 40 mg/kg or more | effect on tumor size (human colon cancer cells; 50 mg/kg): slight effect | effect on tumor size (human colon cancer cells; 100 mg/kg): significant anti-neoplastic effect | IC50 (KB-3 (sensitive); Homo sapiens, KB-3, + 25 μM NCO-700, read-out: vinblastine to kill 50% of cells): 1.6 ng/mL | enhancement of killing by vinblastine (KB-3 (sensitive); sensitive KB-3 cells): slight enhancement of the killing of sensitive KB-3 cells
